These results are taken from patent publication US6841682B2, “Heterocycles useful in the treatment of benign prostatic hyperplasia” (Janseen Pharmaceutica N.V., priority 1997, dated 2005).

pIC50: −log10 of the molar value. Where two headings read alike, the source gives them in different places. Some results are limits rather than exact numbers.

Assay [1] concerns the target T1, α1c (Homo sapiens, UniProt P25100).
T1 construct: expressed in transfected cells
T1 sequence (P25100 1-572): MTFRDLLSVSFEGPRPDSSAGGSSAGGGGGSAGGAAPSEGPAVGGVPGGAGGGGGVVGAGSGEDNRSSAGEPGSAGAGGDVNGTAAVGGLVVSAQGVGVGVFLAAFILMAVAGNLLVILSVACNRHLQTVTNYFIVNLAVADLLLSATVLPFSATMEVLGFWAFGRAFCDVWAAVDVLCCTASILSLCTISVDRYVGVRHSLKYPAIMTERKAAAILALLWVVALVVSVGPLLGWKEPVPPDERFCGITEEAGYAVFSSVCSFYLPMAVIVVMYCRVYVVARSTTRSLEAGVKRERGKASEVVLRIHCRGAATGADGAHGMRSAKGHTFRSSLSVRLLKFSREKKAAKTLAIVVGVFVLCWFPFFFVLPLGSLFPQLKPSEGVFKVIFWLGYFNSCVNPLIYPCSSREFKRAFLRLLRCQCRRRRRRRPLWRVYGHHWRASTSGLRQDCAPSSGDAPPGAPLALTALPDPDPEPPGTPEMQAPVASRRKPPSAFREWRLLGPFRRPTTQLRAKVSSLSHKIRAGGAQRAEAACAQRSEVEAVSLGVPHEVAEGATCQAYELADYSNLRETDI
Briefly: α1c screen (as named in the preparative examples). Conditions: stated in the preparative example. It counts as binding. From the text: (§1) The first assay tested the ability of compounds of Formula I to bind to membrane bound receptors α1a-AR, α1b-AR and α1d-AR.
(§2) The DNA sequences of the three cloned human α1-AR subtypes have been published. […] We used published DNA sequence information to design-primers for use in RT-PCR amplification of each subtype to obtain cloned cDNAs. Human poly A+ RNA was obtained from commercially available sources and included hippocampus and prostate samples, sources which have been cited in the literature. For the primary screen a radio ligand binding assay was used which employed membrane preparations from cells expressing the individual cloned receptor cDNAs. Radiolabeled ligands with binding activity on all three subtypes (non-selective) are commercially available ([125I]-HEAT, [3H]-prazosin).
(§3) Each α1 receptor subtype was cloned from poly A+ RNA by the standard method of reverse transcription-polymerase chain reaction (RT-PCR). The following sources of polyA+ RNA were used for the cloning of the al receptor subtypes: α1a-AR, human hippocampus and prostate, α1b-AR, human hippocampus, α1d-AR, human hippocampus. The resulting cDNAs were cloned into the pcDNA3 mammalian expression vector (Invitrogen Corp., San Diego Calif.). Each DNA was sequenced for verification and to detect any possible mutations introduced during the amplification process. Any deviation in sequence from the published consensus for each receptor subtype was corrected by site-directed mutagenesis.
(§4) The three α1-AR subtypes (a, b, d) were transfected into COS cells using a standard DEAE-dextran procedure with a chloroquine shock. In this procedure, each tissue culture dish (100 mm) was inoculated with 3.5×10^6 cells and transfected with 10 μg of DNA. Approximately 72 hours post-transfection, the cells were harvested and COS membranes were prepared. Transfected COS cells from 25 plates (100 mm) were scraped and suspended in 15 mL of TE buffer (50 mM Tris-HCl, 5 mM EDTA, pH7.4). The suspension was disrupted with a homogenizer. It was then centrifuged at 1000×g for 10 minutes at 4° C. The supernatant was centrifuged at 34,500×g for 20 minutes at 4° C. The pellet was resuspended in 5 mL TNE buffer (50 mM Tris-HCl, 5 mM EDTA, 150 mM NaCl, pH7.4). The resulting membrane preparation was aliquoted and stored at −70° C. The protein concentration was determined following membrane solubilization with TritonX-100.
The ability of each compound to bind to each of the α1-AR subtypes was assessed in a receptor binding assay. [125I]-HEAT, a non-selective α1-AR ligand, was used as the radiolabeled ligand. […] Scintillation fluid (25 mL) was added to each well, and the filter plate was counted in a Packard Topcount scintillation counter. Data was analyzed using GraphPad Prism software.

In assay [2] the target is T2, α1b-AR (Homo sapiens, UniProt P35368).
T2 construct: expressed in transfected cells; host or cells: COS cells (pcDNA3 vector, DEAE-dextran transient transfection); membrane preparation
T2 sequence (P35368 1-520): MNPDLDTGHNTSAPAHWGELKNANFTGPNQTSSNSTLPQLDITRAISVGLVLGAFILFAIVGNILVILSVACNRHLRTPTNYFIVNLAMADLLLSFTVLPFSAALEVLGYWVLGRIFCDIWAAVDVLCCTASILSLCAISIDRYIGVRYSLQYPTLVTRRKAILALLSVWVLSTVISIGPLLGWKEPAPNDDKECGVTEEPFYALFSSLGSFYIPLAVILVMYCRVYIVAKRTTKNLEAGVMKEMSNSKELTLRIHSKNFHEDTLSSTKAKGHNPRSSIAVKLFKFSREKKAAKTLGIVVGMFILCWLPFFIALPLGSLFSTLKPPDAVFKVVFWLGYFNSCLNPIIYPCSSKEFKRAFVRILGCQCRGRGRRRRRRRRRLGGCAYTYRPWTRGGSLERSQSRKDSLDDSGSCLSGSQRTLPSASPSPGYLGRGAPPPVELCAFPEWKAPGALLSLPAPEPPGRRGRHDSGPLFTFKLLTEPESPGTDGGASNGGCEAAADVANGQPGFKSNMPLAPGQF
Briefly: radioligand ([125I]-HEAT) receptor binding assay, COS cell membranes, α1b-AR.
From the text: as §1, §2, §3, §4
(§5) The ability of each compound to bind to each of the α1-AR subtypes was assessed in a receptor binding assay. [125I]-HEAT, a non-selective α1-AR ligand, was used as the radiolabeled ligand. Each well of a 96-well plate received: 140 μL TNE, 25 μL [125I]-HEAT diluted in TNE (50,000 cpm; final concentration 50 pM), 10 μL test compound diluted in DMSO (final concentration 1 pM-10 μM), […] COS cell membrane preparation expressing one of the three α1-AR subtypes (0.05-0.2 mg membrane protein). The plate was incubated for 1 hour at room temperature and the reaction mixtures were filtered through a Packard GF/C Unifilter filter plate. The filter plate was dried for 1 hour in a vacuum oven. Scintillation fluid ([…]) was added to each well, and the filter plate was counted in a Packard Topcount scintillation counter. Data was analyzed using GraphPad Prism software.
(§6) Tables A-J list the IC50 values expressed in nanomolar concentration for select compounds of the invention in all receptor subtypes.

The target in assay [3] is T3, α1d-AR (Homo sapiens, UniProt P25100).
T3 construct: expressed in transfected cells; host or cells: COS cells (pcDNA3 vector, DEAE-dextran transient transfection); membrane preparation
T3 sequence (P25100 1-572): T1 sequence (P25100 1-572)
Briefly: radioligand ([125I]-HEAT) receptor binding assay, COS cell membranes, α1d-AR. Conditions: Tables A-J, [125I]-HEAT 50 pM.
From the text: as §1, §2, §3, §4, §5, §6

In assay [4] the target is T4, α1a-AR (Homo sapiens, UniProt P35348).
T4 construct: expressed in transfected cells; host or cells: COS cells (pcDNA3 vector, DEAE-dextran transient transfection); membrane preparation
T4 sequence (P35348 1-466): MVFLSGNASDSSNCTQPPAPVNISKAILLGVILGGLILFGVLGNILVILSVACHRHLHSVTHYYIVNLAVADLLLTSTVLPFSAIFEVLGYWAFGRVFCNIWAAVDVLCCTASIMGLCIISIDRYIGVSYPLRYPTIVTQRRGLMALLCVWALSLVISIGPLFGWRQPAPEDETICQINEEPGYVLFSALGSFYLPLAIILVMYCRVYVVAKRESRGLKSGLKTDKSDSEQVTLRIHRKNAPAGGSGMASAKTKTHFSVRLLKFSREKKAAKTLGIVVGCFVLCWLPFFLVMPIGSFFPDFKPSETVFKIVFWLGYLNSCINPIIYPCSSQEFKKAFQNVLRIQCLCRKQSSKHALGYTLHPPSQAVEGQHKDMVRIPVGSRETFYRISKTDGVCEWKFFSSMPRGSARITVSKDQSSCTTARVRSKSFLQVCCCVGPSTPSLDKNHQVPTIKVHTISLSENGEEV
The assay can be described thus: radioligand ([125I]-HEAT) receptor binding assay, COS cell membranes, α1a-AR.
From the text: as §1
The DNA sequences of the three cloned human α1-AR subtypes have been published. […] We used published DNA sequence information to design-primers for use in RT-PCR amplification of each subtype to obtain cloned cDNAs. Human poly A+ RNA was obtained from commercially available sources and included hippocampus and prostate samples, sources which have been cited in the literature. For the primary screen a radio ligand binding assay was used which employed membrane preparations from cells expressing the individual cloned receptor cDNAs.
as §3, §4
The ability of each compound to bind to each of the α1-AR subtypes was assessed in a receptor binding assay. […] The plate was incubated for 1 hour at room temperature and the reaction mixtures were filtered through a Packard GF/C Unifilter filter plate. The filter plate was dried for 1 hour in a vacuum oven. Scintillation fluid ([…]) was added to each well, and the filter plate was counted in a Packard Topcount scintillation counter. Data was analyzed using GraphPad Prism software.

Setting [5] is: stated in the preparative example, read-out: activity in the α1b screen.
Setting [6] is: stated in the preparative example, read-out: activity in the α1a screen.

For the compound `CC(C)Oc1ccccc1N1CCN(C/C=C/C(=O)CN2CCCCC2=O)CC1` [compound 36], the pIC50 is 6.22 in assay [1]; less than 5.00 in assay [2] (Tables A-J, [125I]-HEAT 50 pM, COS membranes, read-out: α1b IC50); 5.27 in assay [2] (setting [5]); 6.67 in assay [3]; 8.20 in assay [4] (Tables A-J, [125I]-HEAT 50 pM, COS membranes, read-out: α1a IC50); 7.74 in assay [4] (setting [6]).
As to `CC(C)Oc1ccccc1N1CCN(CC(O)CC(=O)CN2CCCCC2=O)CC1` (stereo not drawn) [compound 35], the pIC50 is 6.60 in assay [1], less than 5.00 in assay [2] (setting [5]) and 7.55 in assay [4] (setting [6]).
Taken in the same sequence, the figures for `CC(C)Oc1ccccc1N1CCN(CC(O)CC(O)CN2CCCCC2=O)CC1` (stereo not drawn) [compound 37] were 6.65, less than 5.00 and 7.28.
With `CC(C)Oc1ccccc1N1CCN(CC(=O)CC(=O)CN2CCCCC2=O)CC1` [compound 2], the figures for the pIC50 in assay [1], in assay [2] (setting [5]) and in assay [4] (setting [6]) were 5.22, less than 5.00 and 6.38, respectively.
